# According to PMC4303209, “A novel phosphatidylinositol 3-kinase (PI3K) inhibitor directs a potent FOXO-dependent, p53-independent cell cycle arrest phenotype characterized by the differential induction of a subset of FOXO-regulated genes” (Breast Cancer Research : BCR, 2014):
# Tested on: MCF-7 breast cancer cells
# Experiment: Microarray gene expression analysis (Agilent whole human genome 4 x 44K; compound vs DMSO, LIMMA log2 fold change)
# Format: cell-based
# Conditions: Apoptosis genes
compound,measurement,setting,value
Cn1ncc2c(N3CCOCC3)nc(-c3cccc(O)c3)nc21 [ETP-45658],CTNNA1 log2FC,Gene 1495,0.398
same,CTNNB1 log2FC,Gene 1499,0.236
same,CTSB log2FC,Gene 1508,-0.231
same,CTSH log2FC,Gene 1512,-0.192
same,CTSL log2FC,Gene 1514,0.446
same,CX3CR1 log2FC,Gene 1524,0.181
same,CYLD log2FC,Gene 1540,0.499
same,DAB2 log2FC,Gene 1601,-0.232
same,DAD1 log2FC,Gene 1603,-0.542
same,DAP log2FC,Gene 1611,-0.178
same,DAPK1 log2FC,Gene 1612,0.238
same,DAPK3 log2FC,Gene 1613,-0.132
same,DBH log2FC,Gene 1621,-0.059
same,DCC log2FC,Gene 1630,0.044
same,GADD45A log2FC,Gene 1647,-0.416
same,DDIT3 log2FC,Gene 1649,2.364
same,DDX3X log2FC,Gene 1654,-1.156
same,DDX5 log2FC,Gene 1655,-0.656
same,DFFA log2FC,Gene 1676,-0.316
same,DFNA5 log2FC,Gene 1687,0.156
same,DHCR24 log2FC,Gene 1718,-0.643
same,DHODH log2FC,Gene 1723,-0.210
same,NQO1 log2FC,Gene 1728,0.303
same,DLX1 log2FC,Gene 1745,-0.429
same,DNASE1 log2FC,Gene 1773,0.250
same,DNASE1L3 log2FC,Gene 1776,-0.141
same,DNASE2 log2FC,Gene 1777,0.536
same,DOCK1 log2FC,Gene 1793,0.462
same,DPEP1 log2FC,Gene 1800,-0.068
same,ATN1 log2FC,Gene 1822,-0.501
same,DSG1 log2FC,Gene 1828,-0.456
same,DSG2 log2FC,Gene 1829,0.346
same,DSG3 log2FC,Gene 1830,-0.092
same,TSC22D3 log2FC,Gene 1831,0.689
same,DSP log2FC,Gene 1832,0.613
same,DUSP1 log2FC,Gene 1843,-0.931
same,DUSP2 log2FC,Gene 1844,-2.124
same,DUSP6 log2FC,Gene 1848,-2.175
same,E2F1 log2FC,Gene 1869,-0.356
same,E2F2 log2FC,Gene 1870,-0.581
same,ECT2 log2FC,Gene 1894,1.058
same,EDN1 log2FC,Gene 1906,0.169
same,EDNRA log2FC,Gene 1909,-0.061
same,EDNRB log2FC,Gene 1910,-0.075
same,EEF1A2 log2FC,Gene 1917,-0.382
same,EFNA5 log2FC,Gene 1946,-0.086
same,EGFR log2FC,Gene 1956,0.311
same,EGR1 log2FC,Gene 1958,-3.897
same,EGR2 log2FC,Gene 1959,-0.340
same,EPHA2 log2FC,Gene 1969,-2.195
same,EIF5A log2FC,Gene 1984,-0.137
same,ENDOG log2FC,Gene 2021,-0.357
same,EP300 log2FC,Gene 2033,-0.215
same,EPHA7 log2FC,Gene 2045,-0.083
same,CLN8 log2FC,Gene 2055,-0.161
same,EPO log2FC,Gene 2056,-0.146
same,ERBB3 log2FC,Gene 2065,0.557
same,ERBB4 log2FC,Gene 2066,0.141
same,ERCC2 log2FC,Gene 2068,-0.566
same,ERCC3 log2FC,Gene 2071,-0.084
same,ERCC5 log2FC,Gene 2073,0.896
same,ERCC6 log2FC,Gene 2074,0.369
same,ERN1 log2FC,Gene 2081,-0.168
same,ESR1 log2FC,Gene 2099,-0.121
same,ESR2 log2FC,Gene 2100,-0.067
same,ETS1 log2FC,Gene 2113,-0.590
same,EYA2 log2FC,Gene 2139,-0.248
same,F2R log2FC,Gene 2149,0.260
same,F3 log2FC,Gene 2152,-0.164
same,PTK2B log2FC,Gene 2185,0.101
same,FCER1G log2FC,Gene 2207,-0.662
same,FGD1 log2FC,Gene 2245,-0.405
same,FGF4 log2FC,Gene 2249,-0.171
same,FGF8 log2FC,Gene 2253,-0.131
same,FGF10 log2FC,Gene 2255,0.033
same,FGFR1 log2FC,Gene 2260,-0.387
same,FGFR3 log2FC,Gene 2261,-0.382
same,FGFR2 log2FC,Gene 2263,1.543
same,FHIT log2FC,Gene 2272,-0.370
same,FHL2 log2FC,Gene 2274,-0.173
same,FOXC1 log2FC,Gene 2296,-0.876
same,FOXC2 log2FC,Gene 2303,-0.613
same,FLT3 log2FC,Gene 2322,0.165
same,FLT4 log2FC,Gene 2324,-0.341
same,FNTA log2FC,Gene 2339,1.051
same,FXN log2FC,Gene 2395,-0.579
same,FRZB log2FC,Gene 2487,0.110
same,FYN log2FC,Gene 2534,-0.127
same,G6PD log2FC,Gene 2539,-0.236
same,GABRA5 log2FC,Gene 2558,0.036
same,GABRB2 log2FC,Gene 2561,-0.066
same,GABRB3 log2FC,Gene 2562,0.054
same,GAS1 log2FC,Gene 2619,0.711
same,GAS2 log2FC,Gene 2620,0.183
same,GATA1 log2FC,Gene 2623,-0.041
same,GATA3 log2FC,Gene 2625,-0.140
same,GDNF log2FC,Gene 2668,0.348
same,B4GALT1 log2FC,Gene 2683,0.129
same,GJA1 log2FC,Gene 2697,-0.390
same,GCLC log2FC,Gene 2729,1.033
same,GLI3 log2FC,Gene 2737,0.306
same,GLO1 log2FC,Gene 2739,0.300
same,GML log2FC,Gene 2765,-0.233
same,GNB1 log2FC,Gene 2782,-0.075
same,GNGT1 log2FC,Gene 2792,0.035
same,GNRH1 log2FC,Gene 2796,0.243
same,SFN log2FC,Gene 2810,-1.182
same,GPLD1 log2FC,Gene 2822,-0.136
same,CXCR3 log2FC,Gene 2833,-0.730
same,GRK5 log2FC,Gene 2869,0.091
same,MKNK2 log2FC,Gene 2872,-0.750
same,GPX1 log2FC,Gene 2876,0.224
same,GRID2 log2FC,Gene 2895,-0.054
same,GRIK2 log2FC,Gene 2898,0.090
same,GRIK5 log2FC,Gene 2901,-0.286
same,GRIN1 log2FC,Gene 2902,-0.518
same,GRIN2A log2FC,Gene 2903,-0.037
same,NR3C1 log2FC,Gene 2908,1.303
same,GRM4 log2FC,Gene 2914,-0.041
same,PDIA3 log2FC,Gene 2923,-0.131
same,GSK3A log2FC,Gene 2931,-0.246
same,GSK3B log2FC,Gene 2932,-0.607
same,GSN log2FC,Gene 2934,-0.206
same,GSTP1 log2FC,Gene 2950,0.120
same,MSH6 log2FC,Gene 2956,0.235
same,GZMH log2FC,Gene 2999,-0.228
same,GZMA log2FC,Gene 3001,-0.081
same,GZMB log2FC,Gene 3002,-0.203
same,GZMM log2FC,Gene 3004,-0.523
same,H1F0 log2FC,Gene 3005,0.826
same,HCK log2FC,Gene 3055,-0.046
same,HDAC1 log2FC,Gene 3065,-0.487
same,HDAC2 log2FC,Gene 3066,0.164
same,HELLS log2FC,Gene 3070,0.388
same,NCKAP1L log2FC,Gene 3071,0.079
same,HGF log2FC,Gene 3082,-0.369
same,NRG1 log2FC,Gene 3084,-1.147
same,HIC1 log2FC,Gene 3090,-0.118
same,HIF1A log2FC,Gene 3091,0.141
same,HIP1 log2FC,Gene 3092,-0.264
same,HINT1 log2FC,Gene 3094,0.229
same,HK2 log2FC,Gene 3099,-1.193
same,HMGB1 log2FC,Gene 3146,0.513
same,HMGB2 log2FC,Gene 3148,1.232
same,HMGCR log2FC,Gene 3156,0.305
same,HMOX1 log2FC,Gene 3162,1.167
same,NR4A1 log2FC,Gene 3164,-0.616
same,HOXA5 log2FC,Gene 3202,0.402
same,HOXA13 log2FC,Gene 3209,0.081
same,HRAS log2FC,Gene 3265,-0.664
same,HRG log2FC,Gene 3273,0.066
same,PRMT2 log2FC,Gene 3275,0.361
same,HSPA1A log2FC,Gene 3303,-2.764
same,HSPA5 log2FC,Gene 3309,-0.358
same,HSPB1 log2FC,Gene 3315,-0.158
same,HSP90AA1 log2FC,Gene 3320,1.066
same,HSP90AB1 log2FC,Gene 3326,-0.153
